Laboratory results as given in patent US5936065A, “CS-1 peptidomimetics, compositions and methods of using the same” (Cytel Corporation, priority 1995, dated 1999).
Square brackets hold non-standard residues; d marks the D form. Peptide text beside a SMILES is read from it. * marks the point of attachment. PhAc = O=C(Cc1ccccc1)*

Legend:
[1] = system: BALB/c mice; experiment: Adoptive transfer delayed type hypersensitivity (oxazolone) in mice; assay type: in vivo, mouse; settings: for reduction of inflammation (swelling diameter at challenge site), initial study: 6 mg/kg/day subcutaneously by implanted pump for 24 hours, ear swelling 24 hours after challenge, FIG. 5
Description: An adoptive transfer delayed-type hypersensitivity murine model has been developed using splenic T cells primed to oxazolone. This model is described in Elices et al., Clin. Exp. Rheum., 11(Suppl. 8):577-580 (1993), whose procedures were followed here.
Thus, BALB/c mice were shaved on the belly and painted (50 μl on the belly and 5 μl on each paw) with three percent oxazolone in acetone/olive oil (4:1) at days zero and 1. At day 5, the mice were sacrificed, their spleens removed, and splenic T cells were obtained via nylon wool columns.
Normal saline or saline containing 25×10^6 /animal of the oxazolone-immune T cells were separately injected into naive mice. The mice were then challenged by painting 10 μl of 2 percent oxazolone onto one ear each. All procedures were carried out under sterile conditions and in endotoxin-free buffers.
Prior to challenge or saline injection, the mice were implanted with pumps that subcutaneously administered normal saline, normal saline containing the compound, Compound ID No. 896.52, N-phenylacetyl-Leu-Asp-Phe-D-Pro-NH2, or normal saline containing a compound with a scrambled sequence continually at 6 mg/kg/day for a 24-hour time period. The swelling diameter at the site of challenge or saline injection was measured with a microcaliper 24 hours thereafter.
An expanded study was carried out as described above except that a scrambled compound control was not used as a control for further inhibitor compounds of Table 1 with larger groups of mice. Statistical analyses were carried out versus injection of vehicle alone.

[2] = system: New Zealand white rabbits; experiment: Rabbit heterotopic cardiac allograft model; assay type: in vivo; settings: for Expression on Coronary Arteries: ICAM-1 / Expression on Coronary Arteries: Macrophages / Expression on Coronary Arteries: T cells / Expression on Coronary Arteries: Total Fibronectin / Expression on Coronary Arteries: VCAM-1 / Expression on Coronary Arteries: MHC Class II: 1 mg/kg s.c., allograft, 7 to 8 days; for Expression on Coronary Arteries: MHC Class II: immunohistochemistry; for Expression on Coronary Arteries: ICAM-1: key: -: negative; ±: minimal; +: little; ++: moderately abundant; +++: very abundant; for Expression on Coronary Arteries: Macrophages: key: -: negative; ±: minimal; +: little; ++: moderately abundant; +++: very abundant; for Expression on Coronary Arteries: T cells: key: -: negative; ±: minimal; +: little; ++: moderately abundant; +++: very abundant; for Expression on Coronary Arteries: Total Fibronectin: key: -: negative; ±: minimal; +: little; ++: moderately abundant; +++: very abundant
Source text: New Zealand white rabbit SPF hearts were allografted into the necks of similar rabbits to assay a graft-vs-host immunorejection model and the affect of a contemplated compound on that immunoinflammatory response.
New Zealand white female rabbits (Charles River Lab., Saint Laurent, Quebec), between 3.5 and 4 kg underwent heterotopic cardiac transplant following an experimental protocol previously described [Alonso et al., Am. J. Pathol., 87:415-442 (1977); Clausell et al., Circulation, 89:2768-2779 (1994)]. The animals were unselected to favor an HLA-mismatch, the host rabbits were Pasteurella-free and the donors, outbred animals. Both host and donor rabbits were fed Purina 5321-0.5 percent cholesterol diet (Research Diets Inc., New Brunswick, N.J.), a strategy that has proven useful in accelerating the process of allograft arteriopathy [Alonso et al., Am. J. Pathol., 87:415-442 (1977)]. The diet was commenced four days prior to the transplant and continued in the recipient of the transplant until the completion of the experimental period.
The technique of heterotopic cardiac transplantation has been previously described [Clausell et al., Circulation, 89:2768-2779 (1994)]. Briefly, a vertical incision was performed in the anterior aspect of the neck of the recipient rabbit and the left common carotid artery and the ipsilateral external jugular vein were isolated. The cardiac allograft was placed in the neck by anastomosing the aorta end-to-side to the recipient's carotid artery and the pulmonary end-to-side to the recipient's external jugular vein, following a total period of ischemia for the donor hearts of approximately 30 minutes. Postoperative care was in compliance with the Principles of Laboratory Animal Care formulated by the Canadian National Society for Medical Research.
Beginning the day of the transplant, the animals were randomized and treated with either scrambled compound (control group) at 1 mg/kg s.c. or the inhibitor compound at 1 mg/kg s.c. The doses of the compounds were empirically extrapolated to the in vivo model based on preliminary in vitro studies, of Table 1. No other immunosuppression therapy was administered. The grafts were monitored daily by palpation and maintained for 7 to 8 days, a previously described endpoint that was associated with myocardial rejection (impaired cardiac contractility) and development of the allograft arteriopathy in this model [Clausell et al., Circulation, 89:2768-2779 (1994)]. A total of fourteen animals were studied in the control (n=7) and treated (n=7) groups.
The animals were sacrificed using a lethal dose of euthanol (480 mg i.v.) (MTC Pharmaceutical, Cambridge, ON), host and donor hearts were removed, and the coronary arteries were perfused with saline through the aorta, followed by light fixation by perfusion with 2 percent paraformaldehyde (Sigma, St, Louis, Mo.). […] Different sections of the hearts were either saved in 10 percent formalin (BDH Inc., Toronto, ON) for light microscopy studies or immediately frozen in O.T.C. Compound Tissue Tek (Miles Inc., Elkart, Ind.) for specific immunohistochemistry studies.
Tissue specimens from the donor hearts were stained with hematoxylin:eosin for histological grading of rejection according to a modified Billingham's criteria [Billingham, Hum. Pathol., 10:367-386 (1979)]. The sections were graded by a pathologist without knowledge of whether the donor hearts came from control or inhibitor compound treated animals.
Three different paraffin-embedded tissue sections from host and donor hearts from both control and treated rabbits were stained by the Movat pentachrome method for light microscopy. Morphometric analysis was performed using a Zeiss microscope attached to a computer-generated video analysis system (Perceptics Inc., NuVision software), as described in Clausell et al., Circulation, 89:2768-2779 (1994). […]

[3] = Retention of potency in PBS containing 10 percent mouse or human serum; assay type: in vitro ADME; settings: PBS at 7.2-7.4 containing 10 percent mouse or human serum; 24 hours
[4] = system: SJL/J mice; experiment: Experimental autoimmune encephalomyelitis in mice; assay type: in vivo; settings: 1 mg/mouse intraperitoneally at days 8 and 9; FIG. 6
Description: EAE was induced in female SJL/J mice (8 to 14 weeks old) by immunization on day zero with 50 μg of a compound corresponding to positions 139-151 of PLP emulsified in a 1:1 mixture of PBS and complete Freund's adjuvant (CFA). Each mouse was injected with 0.2 ml of the adjuvant emulsion subcutaneously (s.c.) at two sites in the hind flank. All mice received 10^7 killed Bordetella pertussis units in 100 μl were injected intravenously 24 to 72 hours later.
Mice were observed daily, beginning at day 8 for clinical signs of EAE, and disease was scored on a scale of 0-5 as: 0=no disease; 1=floppy tail; 2=moderate hind limb weakness; 3=paraparesis; 4=paraplegis with moderate forelimb weakness; 5=qualdriplegis or premoribund state.
The inhibitor compound, Compound ID No. 896.52, N-phenylacetyl-Leu-Asp-Phe-D-Pro-NH2 was administered intraperitoneally at 1 mg/mouse in 0.2 ml of incomplete Freund's adjuvant at days 8 and 9. A compound having a scrambled sequence [N-phenylacetyl-Asp-Leu-Phe-D-Pro-NH2 ] was similarly administered to serve as a control.
Summed or averaged scores for clinical signs were plotted vs. time. The area under the resulting curves was calculated between day 8 and day 35 to calculate percentage inhibition of EAE by an inhibitor compound. The percent inhibition was calculated as follows:
[…]

SMILES: CC(C)C[C@H](NC(=O)Cc1ccccc1)C(=O)N[C@@H](CC(=O)O)C(=O)N[C@@H](Cc1ccccc1)C(=O)N1CCC[C@@H]1C(N)=O [896.52, N-phenylacetyl-Leu-Asp-Phe-D-Pro-NH2] (PhAc-LDF[dP]-NH2)
- reduction of inflammation (swelling diameter at challenge site), initial study [1]: reduced this type of CS-1/VLA-4-mediated immunoinflammation
- Percent Inhibition of post-challenge swelling, expanded study ([1]; versus vehicle alone, implanted pump, 24 hours): 36%
- Expression on Coronary Arteries: ICAM-1 [2]: ±
- Expression on Coronary Arteries: Macrophages [2]: ±
- Expression on Coronary Arteries: T cells [2]: ±
- Expression on Coronary Arteries: Total Fibronectin [2]: ±
- Expression on Coronary Arteries: VCAM-1 [2]: ±
- Expression on Coronary Arteries: MHC Class II [2]: ±
- Baseline (rabbit own host heart) of incidence of intimal thickening [2]: 12%
- Baseline (rabbit own host heart) of severity of intimal thickening [2]: 12%
- loss of potency in serum-containing buffer [3]: no loss of potency
- clinical signs of EAE [4]: marked improvement in clinical signs

SMILES: CC(C)C[C@H](NC(=O)[C@H](CC(=O)O)NC(=O)Cc1ccccc1)C(=O)N[C@@H](Cc1ccccc1)C(=O)N1CCC[C@@H]1C(N)=O [N-phenylacetyl-Asp-Leu-Phe-D-Pro-NH2, reference compound] (PhAc-DLF[dP]-NH2)
- reduction of inflammation (swelling diameter at challenge site), initial study [1]: no reduction of inflammation
- Expression on Coronary Arteries: ICAM-1 [2]: +
- Expression on Coronary Arteries: Macrophages [2]: +
- Expression on Coronary Arteries: T cells [2]: ++
- Expression on Coronary Arteries: Total Fibronectin [2]: ++
- Expression on Coronary Arteries: VCAM-1 [2]: +
- Expression on Coronary Arteries: MHC Class II [2]: ++
- Baseline (rabbit own host heart) of incidence of intimal thickening [2]: 1%
- Baseline (rabbit own host heart) of severity of intimal thickening [2]: 12%
